From ChEMBL document CHEMBL3739370, “Synthesis and evaluation of amide, sulfonamide and urea benzisoxazole derivatives as potential atypical antipsychotics” (Medchemcomm, 2015)

Columns and labels:
[1] = target: D(2) dopamine receptor (Rattus norvegicus, UniProt P61169); experiment: Displacement of [3H]spiperone from dopamine D2 receptor in rat striatum
[2] = target: 5-hydroxytryptamine receptor 2A (Rattus norvegicus, UniProt P14842); experiment: Displacement of [3H]ketanserin from 5HT2A receptor in rat brain cortex; type: tissue-based
Chain of 5-hydroxytryptamine receptor 2A (P14842 whole entry): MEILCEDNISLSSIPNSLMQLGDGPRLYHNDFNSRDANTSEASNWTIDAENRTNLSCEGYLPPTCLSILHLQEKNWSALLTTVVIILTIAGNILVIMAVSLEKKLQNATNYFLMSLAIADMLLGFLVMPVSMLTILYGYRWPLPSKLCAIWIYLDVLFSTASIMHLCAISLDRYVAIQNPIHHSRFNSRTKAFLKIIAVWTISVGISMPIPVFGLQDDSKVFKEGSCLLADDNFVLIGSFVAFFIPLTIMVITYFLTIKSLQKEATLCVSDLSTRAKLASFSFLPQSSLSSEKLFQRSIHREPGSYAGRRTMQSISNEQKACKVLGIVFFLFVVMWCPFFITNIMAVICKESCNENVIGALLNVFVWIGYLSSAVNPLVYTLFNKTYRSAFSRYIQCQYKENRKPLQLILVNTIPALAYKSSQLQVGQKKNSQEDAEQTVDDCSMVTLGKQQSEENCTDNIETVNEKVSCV

[3] = target: T1, Adrenergic receptor alpha-1 (Rattus norvegicus, UniProt P15823+P23944+P43140); experiment: Displacement of [3H]prazosin from adrenergic alpha1 receptor in rat brain cortex; type: tissue-based
T1 sequence (P15823 whole entry): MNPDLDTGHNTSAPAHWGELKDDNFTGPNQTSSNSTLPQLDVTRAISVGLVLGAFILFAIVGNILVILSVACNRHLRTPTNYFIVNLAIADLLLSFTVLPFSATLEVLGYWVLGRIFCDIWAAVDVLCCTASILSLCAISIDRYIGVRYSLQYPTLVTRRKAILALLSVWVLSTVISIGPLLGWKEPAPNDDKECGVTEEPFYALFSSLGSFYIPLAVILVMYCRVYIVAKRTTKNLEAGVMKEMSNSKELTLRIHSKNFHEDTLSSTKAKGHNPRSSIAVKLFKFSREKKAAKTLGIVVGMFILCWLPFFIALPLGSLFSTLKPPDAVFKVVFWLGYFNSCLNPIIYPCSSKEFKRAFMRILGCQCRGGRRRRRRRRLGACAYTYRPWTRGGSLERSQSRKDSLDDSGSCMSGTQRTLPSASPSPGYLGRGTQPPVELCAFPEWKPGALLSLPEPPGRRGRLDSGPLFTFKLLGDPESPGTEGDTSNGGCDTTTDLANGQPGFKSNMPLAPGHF
T1 sequence (P23944 whole entry): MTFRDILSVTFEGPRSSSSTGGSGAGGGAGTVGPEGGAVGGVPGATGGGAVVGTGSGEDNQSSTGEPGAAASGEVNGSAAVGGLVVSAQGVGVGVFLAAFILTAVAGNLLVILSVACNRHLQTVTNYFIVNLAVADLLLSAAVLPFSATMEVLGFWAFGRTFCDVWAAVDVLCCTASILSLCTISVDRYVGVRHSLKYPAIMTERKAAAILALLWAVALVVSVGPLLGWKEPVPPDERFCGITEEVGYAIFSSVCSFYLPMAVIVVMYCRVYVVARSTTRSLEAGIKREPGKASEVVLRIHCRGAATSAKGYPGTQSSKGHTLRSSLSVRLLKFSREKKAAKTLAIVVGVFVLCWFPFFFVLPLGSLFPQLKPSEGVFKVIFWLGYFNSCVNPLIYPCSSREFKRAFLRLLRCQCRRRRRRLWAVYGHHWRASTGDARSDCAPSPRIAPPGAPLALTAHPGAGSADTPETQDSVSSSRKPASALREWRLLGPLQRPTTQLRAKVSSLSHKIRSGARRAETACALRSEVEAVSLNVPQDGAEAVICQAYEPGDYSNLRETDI
T1 sequence (P43140 whole entry): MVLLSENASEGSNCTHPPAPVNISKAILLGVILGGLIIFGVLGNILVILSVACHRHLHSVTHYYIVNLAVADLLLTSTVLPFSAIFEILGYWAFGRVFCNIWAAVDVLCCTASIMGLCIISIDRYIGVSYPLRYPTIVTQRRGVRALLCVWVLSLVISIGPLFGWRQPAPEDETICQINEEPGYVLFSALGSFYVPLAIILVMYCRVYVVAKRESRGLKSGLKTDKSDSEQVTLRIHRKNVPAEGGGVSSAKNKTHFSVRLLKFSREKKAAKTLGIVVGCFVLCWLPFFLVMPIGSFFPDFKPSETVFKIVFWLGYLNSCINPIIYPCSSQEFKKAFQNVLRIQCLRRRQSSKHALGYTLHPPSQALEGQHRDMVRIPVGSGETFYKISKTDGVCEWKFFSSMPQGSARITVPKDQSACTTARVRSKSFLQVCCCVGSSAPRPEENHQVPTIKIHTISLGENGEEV

[4] = target: Histamine H1 receptor (Cavia porcellus, UniProt P31389); experiment: Displacement of [3H]mepyramine from histamine H1 receptor in guinea pig cerebellum
Chain of Histamine H1 receptor (P31389 whole entry): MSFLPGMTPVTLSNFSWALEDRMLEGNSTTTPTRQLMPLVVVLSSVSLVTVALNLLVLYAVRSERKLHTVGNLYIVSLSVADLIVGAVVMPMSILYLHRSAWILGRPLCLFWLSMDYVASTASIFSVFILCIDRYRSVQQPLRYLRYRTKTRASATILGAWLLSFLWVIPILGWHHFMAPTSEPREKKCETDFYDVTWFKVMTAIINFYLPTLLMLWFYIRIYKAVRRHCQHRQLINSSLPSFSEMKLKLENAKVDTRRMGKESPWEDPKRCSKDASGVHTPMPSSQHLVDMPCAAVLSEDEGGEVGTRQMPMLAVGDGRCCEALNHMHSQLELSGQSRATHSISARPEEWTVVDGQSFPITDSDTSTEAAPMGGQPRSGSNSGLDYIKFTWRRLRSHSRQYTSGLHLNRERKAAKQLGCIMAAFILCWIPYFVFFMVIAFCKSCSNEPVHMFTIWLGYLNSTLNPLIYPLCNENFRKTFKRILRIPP

[5] = target: T2, Adrenergic receptor alpha-2 (Rattus norvegicus, UniProt P22086+P19328+P22909); experiment: Displacement of [3H]rauwolscine from adrenergic alpha2 receptor in rat brain cortex; type: tissue-based
T2 sequence (P22086 whole entry): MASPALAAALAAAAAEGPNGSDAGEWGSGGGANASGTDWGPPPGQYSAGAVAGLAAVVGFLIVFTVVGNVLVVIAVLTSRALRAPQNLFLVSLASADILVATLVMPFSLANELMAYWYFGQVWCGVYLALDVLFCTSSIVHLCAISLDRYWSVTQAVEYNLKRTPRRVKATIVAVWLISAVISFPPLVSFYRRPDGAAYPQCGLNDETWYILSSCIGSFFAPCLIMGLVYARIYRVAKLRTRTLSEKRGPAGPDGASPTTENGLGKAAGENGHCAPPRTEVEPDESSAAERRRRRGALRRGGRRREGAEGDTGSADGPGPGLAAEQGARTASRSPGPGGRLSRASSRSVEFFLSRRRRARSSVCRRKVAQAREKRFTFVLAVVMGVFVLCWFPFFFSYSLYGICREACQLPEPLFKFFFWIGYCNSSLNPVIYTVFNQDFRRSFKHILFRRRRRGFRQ
T2 sequence (P19328 whole entry): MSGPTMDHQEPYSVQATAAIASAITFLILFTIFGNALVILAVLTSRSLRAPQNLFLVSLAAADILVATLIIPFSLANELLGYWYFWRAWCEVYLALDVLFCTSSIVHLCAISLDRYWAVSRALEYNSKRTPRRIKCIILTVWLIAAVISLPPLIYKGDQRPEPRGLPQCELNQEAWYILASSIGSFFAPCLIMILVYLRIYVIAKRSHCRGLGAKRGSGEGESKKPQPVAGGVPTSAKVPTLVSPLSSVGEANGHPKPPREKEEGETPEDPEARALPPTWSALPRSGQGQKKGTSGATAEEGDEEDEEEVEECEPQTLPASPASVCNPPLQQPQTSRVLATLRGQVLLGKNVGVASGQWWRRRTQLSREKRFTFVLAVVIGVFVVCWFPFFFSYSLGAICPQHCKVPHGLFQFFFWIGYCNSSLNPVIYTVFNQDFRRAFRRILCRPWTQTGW
T2 sequence (P22909 whole entry): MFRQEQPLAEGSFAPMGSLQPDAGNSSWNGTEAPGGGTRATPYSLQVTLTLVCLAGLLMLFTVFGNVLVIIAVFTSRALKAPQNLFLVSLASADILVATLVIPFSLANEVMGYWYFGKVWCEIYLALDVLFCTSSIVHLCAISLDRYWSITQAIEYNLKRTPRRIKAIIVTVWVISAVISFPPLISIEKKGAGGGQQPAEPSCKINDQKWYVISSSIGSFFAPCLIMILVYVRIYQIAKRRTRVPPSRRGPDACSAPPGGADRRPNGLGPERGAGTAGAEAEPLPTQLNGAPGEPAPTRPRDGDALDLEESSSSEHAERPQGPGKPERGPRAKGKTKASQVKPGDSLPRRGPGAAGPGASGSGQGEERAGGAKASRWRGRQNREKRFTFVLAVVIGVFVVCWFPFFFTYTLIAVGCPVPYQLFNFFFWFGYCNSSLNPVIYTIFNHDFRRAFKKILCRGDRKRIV

Chain of D(2) dopamine receptor (P61169 whole entry): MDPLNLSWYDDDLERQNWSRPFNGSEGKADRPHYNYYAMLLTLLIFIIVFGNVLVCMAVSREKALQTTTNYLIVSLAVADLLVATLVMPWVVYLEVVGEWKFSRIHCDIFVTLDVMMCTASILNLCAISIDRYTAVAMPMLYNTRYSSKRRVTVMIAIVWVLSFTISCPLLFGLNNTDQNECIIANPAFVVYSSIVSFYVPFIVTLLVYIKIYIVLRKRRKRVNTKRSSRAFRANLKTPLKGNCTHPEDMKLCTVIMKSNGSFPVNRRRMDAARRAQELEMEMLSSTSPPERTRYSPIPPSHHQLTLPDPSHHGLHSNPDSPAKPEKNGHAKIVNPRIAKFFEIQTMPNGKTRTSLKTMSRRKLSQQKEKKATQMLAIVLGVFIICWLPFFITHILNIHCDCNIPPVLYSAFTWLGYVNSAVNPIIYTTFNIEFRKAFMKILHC

Row | Ki [1] [µM] | Ki [2] [µM] | Ki [3] [µM] | Ki [4] [µM] | Ki [5] [µM] | Compound
1 | 0.0326 | 0.0157 | 1.0982 | 0.0436 | 0.5683 | O=S(=O)(c1ccc(C(F)(F)F)cc1)N1CCC(CN2CCC(c3noc4cc(F)ccc34)CC2)CC1
2 | 0.0087 | 0.00079 | 2.3562 | 2.85 | 0.9673 | O=[N+]([O-])c1ccc(S(=O)(=O)N2CCC(CN3CCC(c4noc5cc(F)ccc45)CC3)CC2)cc1
